From ChEMBL document CHEMBL5725742, “Imidazopyridazine derivatives as PI3KB inhibitors” (2018)

What was measured:
[1] = (§1) KINOMEscan Enzyme Binding Assays: Kinase enzyme binding affinities of compounds disclosed herein were determined using the KINOMEscan technology performed by DiscoveRx Corporation, San Diego, Calif., USA (www.kinomescan.com).
[2] = biological target: T1, Phosphatidylinositol 4,5-bisphosphate 3-kinase catalytic subunit delta isoform (Homo sapiens, UniProt O00329); test: as §1
T1 sequence (O00329 whole entry): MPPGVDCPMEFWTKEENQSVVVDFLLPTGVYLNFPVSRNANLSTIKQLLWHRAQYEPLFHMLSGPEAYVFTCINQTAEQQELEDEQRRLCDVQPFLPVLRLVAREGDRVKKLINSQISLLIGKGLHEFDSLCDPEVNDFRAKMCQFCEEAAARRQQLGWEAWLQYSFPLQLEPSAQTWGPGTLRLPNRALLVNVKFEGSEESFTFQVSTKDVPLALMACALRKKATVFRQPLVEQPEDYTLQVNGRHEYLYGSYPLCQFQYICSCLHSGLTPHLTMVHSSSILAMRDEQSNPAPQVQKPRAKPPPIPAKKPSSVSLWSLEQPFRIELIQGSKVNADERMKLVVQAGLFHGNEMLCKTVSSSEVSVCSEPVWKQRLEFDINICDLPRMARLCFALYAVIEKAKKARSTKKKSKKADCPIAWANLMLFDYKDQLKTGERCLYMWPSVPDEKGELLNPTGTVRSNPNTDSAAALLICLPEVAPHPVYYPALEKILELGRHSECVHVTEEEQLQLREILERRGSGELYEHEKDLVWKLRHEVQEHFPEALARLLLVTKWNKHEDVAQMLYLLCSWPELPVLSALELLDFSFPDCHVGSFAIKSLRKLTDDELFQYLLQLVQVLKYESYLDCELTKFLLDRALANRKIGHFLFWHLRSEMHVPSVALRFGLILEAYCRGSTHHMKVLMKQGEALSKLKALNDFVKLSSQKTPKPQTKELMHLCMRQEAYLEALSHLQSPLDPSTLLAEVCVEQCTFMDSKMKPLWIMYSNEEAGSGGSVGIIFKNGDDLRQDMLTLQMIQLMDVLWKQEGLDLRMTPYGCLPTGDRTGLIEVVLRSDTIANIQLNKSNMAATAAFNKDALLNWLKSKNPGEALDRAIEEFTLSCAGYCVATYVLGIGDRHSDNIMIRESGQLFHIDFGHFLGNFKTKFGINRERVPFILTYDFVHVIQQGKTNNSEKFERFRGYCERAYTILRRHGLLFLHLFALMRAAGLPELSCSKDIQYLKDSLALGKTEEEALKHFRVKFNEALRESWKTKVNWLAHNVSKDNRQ

[3] = biological target: Phosphatidylinositol 4,5-bisphosphate 3-kinase catalytic subunit gamma isoform (Homo sapiens, UniProt P48736); test: as §1
Phosphatidylinositol 4,5-bisphosphate 3-kinase catalytic subunit gamma isoform, sequence (P48736 whole entry, canonical isoform): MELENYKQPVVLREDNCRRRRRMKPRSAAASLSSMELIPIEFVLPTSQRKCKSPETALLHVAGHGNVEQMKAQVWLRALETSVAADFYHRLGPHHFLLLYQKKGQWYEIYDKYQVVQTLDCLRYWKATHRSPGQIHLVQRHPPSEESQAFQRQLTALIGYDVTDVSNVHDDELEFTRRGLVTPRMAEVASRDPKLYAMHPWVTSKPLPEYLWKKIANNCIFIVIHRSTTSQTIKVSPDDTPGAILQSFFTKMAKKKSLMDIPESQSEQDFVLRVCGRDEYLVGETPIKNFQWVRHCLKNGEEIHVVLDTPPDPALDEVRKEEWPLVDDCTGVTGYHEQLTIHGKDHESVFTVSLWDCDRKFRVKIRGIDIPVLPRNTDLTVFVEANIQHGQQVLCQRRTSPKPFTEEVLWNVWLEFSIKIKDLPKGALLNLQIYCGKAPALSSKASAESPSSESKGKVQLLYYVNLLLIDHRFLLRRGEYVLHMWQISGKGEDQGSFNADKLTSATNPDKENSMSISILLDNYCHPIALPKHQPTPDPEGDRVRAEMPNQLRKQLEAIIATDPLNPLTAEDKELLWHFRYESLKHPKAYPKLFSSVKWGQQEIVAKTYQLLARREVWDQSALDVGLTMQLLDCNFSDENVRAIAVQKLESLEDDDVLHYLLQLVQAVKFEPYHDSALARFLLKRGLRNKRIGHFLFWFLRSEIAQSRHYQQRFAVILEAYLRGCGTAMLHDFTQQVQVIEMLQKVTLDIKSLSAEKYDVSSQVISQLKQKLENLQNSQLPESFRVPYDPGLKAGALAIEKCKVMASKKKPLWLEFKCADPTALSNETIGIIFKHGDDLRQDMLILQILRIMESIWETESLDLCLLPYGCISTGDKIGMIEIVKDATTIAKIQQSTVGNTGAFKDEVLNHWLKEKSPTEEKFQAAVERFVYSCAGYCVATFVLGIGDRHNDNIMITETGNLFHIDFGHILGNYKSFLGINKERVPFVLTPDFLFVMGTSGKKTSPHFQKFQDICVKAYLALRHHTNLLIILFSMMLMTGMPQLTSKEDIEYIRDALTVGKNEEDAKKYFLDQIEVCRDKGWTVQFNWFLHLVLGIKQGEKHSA

Compound | Kd [1] | Kd [2] | Kd [3]
CC(CO)NCc1c(F)cccc1Cc1c(CO)nc2c(N)cc(N3CCOCC3)nn12 (stereo not given) | > 30200 nM |  | 
CCc1c(F)cccc1Cc1c(CNCCO)nc2c(N)cc(N3CCOCC3)nn12 |  | 427 nM | 724 nM
Cc1c(Cc2c(CO)nc3c(-c4cnc[nH]4)cc(N4CCOCC4)nn23)cccc1C(F)(F)F |  | 80 nM | 1760 nM
